Measurements taken from patent US5045566A, “Novel imidate insecticides” (ICI Americas Inc., priority 1989, dated 1991).

Tests used:
Assay type in all cases: in vivo
[1] = test system: Housefly [Musca domestica]; experiment: Housefly contact mortality in dishes (HF), 48 hours; conditions: μg of test compound per 25 female flies
Procedure: (§1) The compounds in Tables 1 and 2 above were tested for insecticidal activity using the following testing procedures. LC50 values, based on the results of these tests and calculated according to dosage-mortality curves, are expressed in Table 3.
Housefly [Musca domestica]:
Test compounds were diluted in acetone and aliquots pipetted onto the bottom of aluminum dishes. To ensure even spreading of the chemical on the bottom of the dishes, 1 ml of acetone containing 0.01% peanut oil was also added to each dish. After all solvents had evaporated, the dishes were placed in circular cardboard cages containing 25 female houseflies, 1-2 days old. The cages were covered on the bottom with cellophane and on the top with tulle netting, and each contained a sugar-water saturated cotton plug for maintenance of the flies. Mortality was recorded after 48 hours. Test levels ranged from 100 μg/25 female houseflies downward. The LC-50 value is expressed below in Table 3 under the heading "HF", in terms of μg of the test compound per 25 female flies.

[2] = test system: Tobacco Budworm [Heliothis virescens (Fabricius)] eggs; experiment: Tobacco budworm eggs (TBW-E); conditions: percent in solution; 2-day old eggs
Procedure: as §1
Tobacco Budworm [Heliothis virescens (Fabricius)]:
(b). Eggs: Paper towel patches of 2-day old eggs of the tobacco budworm were dipped in acetone solutions of the test compound and placed in petri dishes containing a portion of larval rearing medium. Treated eggs were maintained at 78° F. and mortality was recorded after all control eggs had hatched and the young larvae were feeding on the media. Test concentrations ranged from 0.1% downward. The LC-50 value is expressed below in Table 3 under the heading "TBW-E" in terms of percent of the test compound in the solution.

[3] = test system: Cabbage Looper [Trichoplusia ni (Hubner)]; experiment: Cabbage looper leaf dip (CL), 3-5 days; conditions: percent in solution, second-instar larvae
Procedure: as §1
Cabbage Looper [Trichoplusia ni (Hubner)]:
Test compounds were diluted in a 50-50 acetone-water solution. Cotyledons of hyzini squash (Calabacita abobrinha), approximately 1×1.5 inches, were immersed in the test solutions for 2-3 seconds and placed on a wire screen to dry. The dried leaves were placed in petri dishes containing a moistened piece of filter paper and infested with 5 second-instar cabbage looper larvae. The dishes were placed in a high humidity chamber. Mortality of the larvae was recorded 3-5 days later. Test concentrations ranged from 0.1% downward. The LC-50 value is expressed below in Table 3 under the heading "CL" in terms of percent of the test compound in solution.

| Structure (SMILES) | LC50 HF [1] [µg] | LC50 TBW E (eggs) [2] [%] | LC50 CL [3] [%] |
| --- | --- | --- | --- |
| CCC(C)C(=Nc1ccc(Cl)cc1)OCc1cccc(Oc2ccccc2)c1 (stereo not drawn) [Compound 26] | > 100 | > 0.1 | 0.007 |
| CC(Cl)C(=Nc1ccc(Cl)c(Cl)c1)OCc1cccc(Oc2ccccc2)c1 (stereo not drawn) [Compound 27] | > 100 | > 0.1 | 0.04 |
| CCC(=Nc1cccc(Cl)c1Cl)OCc1cccc(Oc2ccccc2)c1 [Compound 28] | > 100 | > 0.1 | 0.009 |
| CCC(=Nc1ccc(Cl)c(Cl)c1)OCc1cccc(Oc2ccccc2)c1 [Compound 36] | 20 | > 0.1 | 0.024 |
| CCCC(=Nc1ccc(Cl)c(Cl)c1)OCc1cccc(Oc2ccccc2)c1 [Compound 38] | 33 | 0.05 | 0.006 |
| CCC(C)C(=Nc1ccc(Cl)c(Cl)c1)OCc1cccc(Oc2ccccc2)c1 (stereo not drawn) [Compound 39] | > 100 | > 0.1 | 0.0023 |
| CC(C)C(=Nc1ccc(Cl)c(Cl)c1)OCc1cccc(Oc2cccc(F)c2)c1 [Compound 40] | 36 | 0.08 | 0.0025 |
| CCC(=Nc1ccc(F)cc1F)OCc1cccc(Oc2ccccc2)c1 [Compound 59] | 25 | > 0.1 | 0.02 |
| COc1ccc(N=C(OCc2cccc(Oc3ccc(F)cc3)c2)C(C)C)cc1Cl [Compound 110] | 26 | 0.04 | 0.007 |
| CC(C)C(=Nc1cccc(Oc2ccccn2)c1)OCc1cccc(Oc2ccccc2)c1 [Compound 114] | 92 | – | < 0.1 |
| CCC(=Nc1ccc(F)c(Cl)c1)OCc1cccc(Oc2ccc(F)cc2)c1 [Compound 115] | 10 | 0.075 | 0.0012 |
| CC(Br)C(=Nc1ccc(F)c(Cl)c1)OCc1cccc(Oc2ccccc2)c1 (stereo not drawn) [Compound 118] | 18 | > 0.1 | 0.0013 |
| CCCCC(=Nc1ccc(F)c(Cl)c1)OCc1cccc(Oc2ccccc2)c1 [Compound 121] | > 100 | > 0.1 | 0.1 |
| CCCC(=Nc1ccc(F)c(Cl)c1)OCc1cccc(Oc2ccccc2)c1 [Compound 123] | > 100 | > 0.1 | 0.012 |
| CC(C)C(=Nc1cccc(C#N)c1)OCc1cccc(Oc2ccccc2)c1 [Compound 126] | > 100 | > 0.1 | 0.08 |
| CC(=O)c1cccc(N=C(OCc2cccc(Oc3ccccc3)c2)C(C)C)c1 [Compound 170] | 37 | > 0.1 | 0.1 |
| CCOc1cccc(N=C(OCc2cccc(Oc3ccccc3)c2)C(C)C)c1 [Compound 171] | 80 | > 0.1 | 0.01 |
| CC(C)C(=Nc1ccc2c(c1)OC(C)(C)O2)OCc1cccc(Oc2ccccc2)c1 [Compound 182] | 28 | 0.04 | 0.0006 |
| CC(C)C(=Nc1ccc2c(c1)OCO2)OCc1cccc(Oc2ccccc2F)c1 [Compound 183] | 10 | 0.075 | 0.00075 |
| CCCC(=Nc1ccc(OC)cc1)OCc1cccc(Oc2ccccc2)c1 [Compound 184] | 61 | > 0.1 | 0.024 |
| CCC(C)C(=Nc1ccc2c(c1)OCO2)OCc1cccc(Oc2ccccc2)c1 (stereo not drawn) [Compound 185] | 13 | 0.075 | 0.0006 |
| CC(C)C(=Nc1ccc2c(c1)OCO2)OCc1cccc(Oc2ccccc2F)c1 [Compound 190] | 7.5 | 0.023 | 0.0004 |
| CC(C)C(=Nc1cccc(C(F)(F)F)c1)OCc1cccc(Oc2cccc(F)c2)c1 [Compound 192] | 25 | 0.07 | 0.0012 |

| Structure (SMILES) | LC50 HF [1] [µg] | LC50 TBW E (eggs) [2] [%] | LC50 CL [3] [%] |
| --- | --- | --- | --- |
| CC(C)C(=Nc1ccc(Cl)c(C(F)(F)F)c1)OCc1cccc(Oc2cccc(F)c2)c1 [Compound 195] | > 100 | > 0.1 | 0.002 |
| CC(C)C(=Nc1ccc(F)cc1)OCc1cccc(Oc2ccc(F)cc2)c1 [Compound 197] | > 100 | 0.05 | 0.0004 |
| CC(C)C(=Nc1cccc(F)c1)OCc1cccc(Oc2ccc(F)cc2)c1 [Compound 200] | 7.5 | 0.1 | 0.00075 |
| COc1cccc(N=C(OCc2cccc(Oc3ccc(F)cc3)c2)C(C)C)c1 [Compound 201] | 15 | > 0.1 | 0.004 |
| CC(C)C(=Nc1ccc(Cl)c(Cl)c1)OCc1cccc(Oc2cccc(Cl)c2)c1 [Compound 207] | > 100 | > 0.1 | 0.008 |
| CC(C)C(=Nc1ccc(F)c(F)c1)OCc1cccc(Oc2ccc(Br)cc2)c1 [Compound 275] | 21 | 0.045 | 0.00012 |
| CC(C)C(=Nc1ccc(F)c(Br)c1)OCc1cccc(Oc2ccc(Br)cc2)c1 [Compound 276] | 39 | 0.1 | 0.002 |
| CC(C)C(=Nc1ccc(C2CCCCC2)cc1)OCc1cccc(Oc2ccc(F)cc2)c1 [Compound 280] | > 100 | > 0.1 | 0.024 |
| CC(C)C(=Nc1ccc(C(F)(F)F)cc1)OCc1ccc(F)c(Oc2ccc(F)cc2)c1 [Compound 287] | > 100 | > 0.1 | 0.0025 |
| CC(C)C(=Nc1cccc(OC(F)(F)C(F)F)c1)OCc1cccc(Oc2ccc(F)cc2)c1 [Compound 288] | > 100 | > 0.1 | 0.0015 |
| CCC(CC)C(=Nc1ccc(Cl)cc1)OCc1cccc(Oc2ccc(F)cc2)c1 [Compound 290] | > 100 | > 0.1 | 0.017 |
| CCC(CC)C(=Nc1cccc(C(F)(F)F)c1)OCc1cccc(Oc2ccc(F)cc2)c1 [Compound 291] | > 100 | > 0.1 | 0.004 |
| CC(Br)C(=Nc1ccc(F)c(Cl)c1)OCc1cccc(Oc2ccc(F)cc2)c1 (stereo not drawn) [Compound 305] | > 100 | > 0.1 | 0.048 |
| CC(C)C(=Nc1ccc(C(C)(C)C)c(Cl)c1)OCc1cccc(Oc2ccc(F)cc2)c1 [Compound 308] | > 100 | > 0.1 | 0.009 |
| CC(C)(F)C(=Nc1ccc(F)c(Cl)c1)OCc1cccc(Oc2ccc(F)cc2)c1 [Compound 309] | > 100 | 0.07 | 0.00017 |
| CC(C)C(=Nc1ccc(Cl)cc1Cl)OCc1cccc(Oc2ccccc2)c1 [Compound 311] | 22 | 0.1 | 0.0017 |
| CC(C)C(=Nc1ccc(Cl)cc1Cl)OCc1cccc(Oc2ccc(F)cc2)c1 [Compound 312] | > 100 | > 0.1 | 0.006 |
| CC(C)C(=Nc1ccc2c(c1)OCO2)OCc1ccc(F)c(Oc2ccc(Cl)cc2)c1 [Compound 313] | > 100 | 0.013 | 0.00025 |
| CCC(C)C(=Nc1ccc(C(C)C)cc1)OCc1cccc(Oc2ccccc2)c1 (stereo not drawn) [Compound 317] | > 100 | 0.03 | 0.0045 |
| CC(C)(F)C(=Nc1ccc(F)c(F)c1)OCc1cccc(Oc2ccc(F)cc2)c1 [Compound 318] | 19 | > 0.1 | 0.0007 |
| CC(C)(F)C(=Nc1cccc(C(F)(F)F)c1)OCc1cccc(Oc2ccc(F)cc2)c1 [Compound 319] | 44 | > 0.1 | 0.0007 |
| CCC(=Nc1ccc(C(C)C)cc1)OCc1cccc(Oc2ccc(F)cc2)c1 [Compound 320] | > 100 | > 0.1 | 0.0075 |
| CC(C)C(=Nc1ccc(F)c(Cl)c1)OC(F)c1cccc(Oc2ccc(F)cc2)c1 (stereo not drawn) [Compound 502] | 80 | – | – |
